In patent US10414721B1, “Inhibitor of endocannabinoid cellular reuptake” (University of Bern, priority 2018, dated 2019):
Entries after “also recorded” stand apart in the source; their conditions may differ.

Tests used:
[1] = molecular target: T1, ABHD6 (Mus musculus, UniProt Q8R2Y0); test: ABHD6 activity (ABPP and radioactivity-based hydrolytic assays); format: biochemical; conditions: ABPP in mouse brain homogenate and hydrolytic assays
T1 construct: membrane preparations obtained from mouse brains; from tissue; host or cells: mouse brain membranes
T1 sequence (Q8R2Y0 whole entry): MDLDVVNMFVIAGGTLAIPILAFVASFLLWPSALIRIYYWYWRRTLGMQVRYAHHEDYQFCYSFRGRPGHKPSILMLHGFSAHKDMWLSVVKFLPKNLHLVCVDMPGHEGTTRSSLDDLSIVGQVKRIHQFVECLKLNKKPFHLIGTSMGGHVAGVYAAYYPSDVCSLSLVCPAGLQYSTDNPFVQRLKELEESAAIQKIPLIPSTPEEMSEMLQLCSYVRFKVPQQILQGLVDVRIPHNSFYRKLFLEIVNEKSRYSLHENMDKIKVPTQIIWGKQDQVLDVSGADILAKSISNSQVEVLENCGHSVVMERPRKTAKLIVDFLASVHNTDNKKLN
Experimental: (§1) ABPP experiments were performed using membrane preparations obtained from mouse brains as described earlier.
(§2) FAAH, ABHDs, MAGL and COX-2 activity assays were performed using cell homogenates, human recombinant enzymes and mouse, rat and pig brain homogenates as previously described.

[2] = system: 2-AG uptake in Neuro2a cells; test: 2-AG uptake and hydrolysis in Neuro2a cells; format: cell-based, mouse
Experimental: (§3) All radioactivity-based AEA and 2-AG uptake and release assays performed in U937, and HMC-1 cells were carried out using two different assay formats as previously reported. AEA and 2-AG uptake assay in Neuro2a and primary mouse cortical neurons were performed with a different method disclosed in Chicca 2017.

[3] = Cell penetration (intracellular LC-MS/MS and PAMPA); format: in vitro ADME
Excerpt: Cell penetration was further investigated by quantifying intracellular levels of WOBE437 by LC-MS/MS and measuring its physicochemical distribution in the parallel artificial membrane permeability assay (PAMPA).

[4] = system: BALB/c mice; test: Open field test in monoarthritic mice; format: in vivo, mouse
Experimental: Potential motor changes were evaluated in an open field box (40×40×30 cm, Plexiglas). The mice were individually placed in the center and allowed to move freely for 5 min. The locomotion activity was recorded with the OpenFieldTest© and traveled distance was evaluated automatically. After every experiment, the box was cleaned with 70% ethanol to remove odors.

[5] = system: mice; test: Formalin test; format: in vivo, mouse; conditions: comparable to indomethacin (5 mg/kg)
Experimental: (§4) WOBE437 was initially assessed in a battery of four individual tests typically associated with CB1 receptor activation in mice (nociception, locomotion, body temperature and cataleptic behavior), collectively referred to as the “tetrad”. Dose-response experiments identified 10 mg/kg as the lowest dose to elicit a moderate but complete tetrad in BALB/c mice upon intraperitoneal (i.p.) administration (FIGS. 3A-D). […] To assess whether the WOBE437-induced effects were CB1 receptor-mediated, mice were pre-treated with the selective antagonist/inverse agonist rimonabant (SR1). […] These experiments provided a proof-of-concept for the mechanism of action of WOBE437 as a novel “indirect CB1 receptor agonist”. In subsequent studies, the effects of WOBE437 in pain, inflammatory and anxiety models were investigated. […] Both effects were reversed by SR1.
(§5) WOBE437 and RX-055 were tested in independent laboratories, in different mouse strains and in multiple (behavioral) models for cannabimimetic, analgesic, anti-inflammatory and anxiolytic-effects in wild-type and phenotypical CB1-KO mice as described in Chicca 2017.

[6] = system: major serine hydrolases; test: Serine hydrolase activity in vivo; conditions: mouse
[7] = system: BALB/c mice; test: LPS-induced endotoxemia; format: in vivo, mouse; conditions: 5 and 10 mg/kg
Experimental: as §4, §5

[8] = molecular target: T2, ABHD12 (Mus musculus, UniProt Q99LR1); test: ABHD12 activity (ABPP and radioactivity-based hydrolytic assays); format: biochemical; conditions: ABPP in mouse brain homogenate and hydrolytic assays
T2 construct: membrane preparations obtained from mouse brains; from tissue; host or cells: mouse brain membranes
T2 sequence (Q99LR1 whole entry): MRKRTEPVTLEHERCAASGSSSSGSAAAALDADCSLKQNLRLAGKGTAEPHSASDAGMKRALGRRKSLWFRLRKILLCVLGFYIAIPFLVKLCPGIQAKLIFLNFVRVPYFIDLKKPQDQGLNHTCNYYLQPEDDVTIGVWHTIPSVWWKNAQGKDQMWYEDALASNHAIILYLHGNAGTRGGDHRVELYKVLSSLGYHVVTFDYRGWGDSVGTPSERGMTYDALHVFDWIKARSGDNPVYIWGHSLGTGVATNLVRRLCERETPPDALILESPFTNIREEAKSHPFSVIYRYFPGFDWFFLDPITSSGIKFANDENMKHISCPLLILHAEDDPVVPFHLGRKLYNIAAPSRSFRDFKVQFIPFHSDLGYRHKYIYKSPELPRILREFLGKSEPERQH
Experimental: as §1, §2

[9] = system: AEA uptake in HMC-1 human mast cells; test: AEA uptake inhibition in FAAH-deficient HMC-1 cells; format: cell-based
Experimental: as §3

[10] = system: BALB/c male mice; test: Tetrad test after oral administration; format: in vivo, mouse; conditions: 50 mg/kg p.o.
Experimental: The tetrad test was performed in the following order: rectal temperature, catalepsy, locomotion and analgesia. Rectal temperature was measured before (basal) and 1 h post gavage administration by using a thermocouple probe (Physitemp Instruments Inc., USA) and results were reported as the difference (Δ) between both temperatures. The bar test was used to evaluated catalepsy by placing the mouse in an imposed position with both forelimbs resting on a bar of 4 cm high; the end point of catalepsy was considered when both front limbs were removed or remained over 120 s. Locomotor activity was determined by placing the mouse on a rotarod (Erweka, Germany) at 4 rpm, the latency to fall was measured with a cut-off time of 120 s. Each mouse was previously trained to walk over the rotarod for at least 120 s. Catalepsy and locomotion were measured in three trials. Analgesia was evaluated with the hot plate test, each mouse was placed in a 54-56° C. hot plate (Thermo Scientific, USA) with a Plexiglas cylinder, the latency to first nociceptive response (paw lick or foot shake) was measured.

[11] = system: AEA uptake in primary mouse cortical neurons; test: AEA uptake in primary mouse cortical neurons; format: cell-based; conditions: Cortical neurone
Experimental: as §3

[12] = system: BALB/c mice; test: Tetrad test after i.p. administration; format: in vivo, mouse
Experimental: as §4, §5

[13] = system: main EC degrading enzymes (FAAH, MAGL); test: Stability towards endocannabinoid degrading enzymes; format: in vitro ADME
Experimental: as §2

[14] = molecular target: CB2 receptor (Homo sapiens, UniProt P34972); test: CB2 receptor binding assay
Sequence of CB2 receptor (P34972 whole entry): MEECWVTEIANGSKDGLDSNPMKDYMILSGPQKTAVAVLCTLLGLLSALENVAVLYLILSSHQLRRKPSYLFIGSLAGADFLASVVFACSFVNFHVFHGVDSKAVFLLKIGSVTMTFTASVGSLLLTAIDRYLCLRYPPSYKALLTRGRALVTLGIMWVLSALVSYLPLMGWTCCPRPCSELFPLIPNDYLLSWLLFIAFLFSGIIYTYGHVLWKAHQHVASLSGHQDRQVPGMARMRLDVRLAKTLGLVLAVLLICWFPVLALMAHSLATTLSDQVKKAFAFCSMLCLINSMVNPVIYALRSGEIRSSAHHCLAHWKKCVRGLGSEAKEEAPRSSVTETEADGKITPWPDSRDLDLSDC
Experimental: CB1 and CB2 receptor binding assays [^35S]GTPγS assays were performed as previously described. WOBE437 was profiled in more detail in an extended CNS adverse drug reaction screening panel (CEREP).

With `CCCCCCC/C=C/C=C/C(=O)NCCc1ccc(OC)c(OC)c1` [WOBE437, (2E,4E)-N-[2-(3,4-Dimethoxyphenyl)ethyl]dodeca-2,4-dienamide] the “inhibition of ABHD6” value [1] was “did not inhibit”, the “reduction of overall 2-AG uptake” value ([2]; 5 μM, 2 and 5 min incubation) was 40% and the “effect on 2-AG uptake and hydrolysis” value ([2]; Neuro2a cells, time course) was “only inhibited 2-AG uptake but not hydrolysis”. For the same compound, the cell membrane penetration [3] was “does not significantly penetrate cell membranes”, the spontaneous motor activity [4] was “without significant observable changes” and the “inflammatory pain and paw thickness” value [5] was “reduced inflammatory pain and paw thickness”. For the same compound, the “inhibition of major serine hydrolases in vivo” value [6] was “did not inhibit”, the “effect in LPS-induced endotoxemia” value [7] was “protective effects” and the “inhibition of ABHD12” value [8] was “did not inhibit”. For the same compound, the IC50 ([9]; HMC1, FAAH-deficient HMC-1 human mast cells, estimated) was roughly 0.137 µM, the “Hill slope, AEA uptake” value ([9]; HMC-1 cells) was −0.934 and the antinociception in tetrad [10] was “significant antinociception”. For the same compound, the “body temperature, catalepsy or motor coordination vs vehicle” value [10] was “No statistical differences”, the latency of catalepsy ([10]; 1 h, control 5.9±5.4) was 10.5 ± 10.6 s and the “change in body temperature” value ([10]; 1 h, control +0.1±0.8) was −0.8±0.8 °C. For the same compound, the inhibition at 1 µM ([11]; 2-7 min of incubation) was 50%, the inhibition at 1 µM ([11]; 10-20 min of incubation) was 20 to 35% and the tetrad response ([12]; 3 mg/kg) was “ineffective”. For the same compound, the tetrad response ([12]; 10 mg/kg) was “full tetrad response”, the “tetrad in CB1 receptor-deficient littermates” value ([12]; C57BL6/N background) was “completely absent” and the “tetrad effects after pre-treatment with rimonabant (SR1)” value ([12]; hypothermia, catalepsy and antinociception) was “completely blocked by SR1”. The “hypothermia, catalepsy and antinociception compared to (R)-WIN55,212-2” value ([12]; i.p.) was “significantly less pronounced”, the “lowest dose to elicit a complete tetrad” value ([12]; i.p., BALB/c mice) was 10 mg/kg and the “stability in the presence of the main EC degrading enzymes” value [13] was “completely stable; also recorded: not affected by the hydrolytic activity of FAAH and MAGL”. The Ki [14] was 48 µM.
